Experimental findings from patent US9938259B2, “Therapeutic compositions and related methods of use” (Agios Pharmaceuticals, Inc., priority 2009, dated 2018) are described below.

Test [1] has as its target T1, PKM2 (Homo sapiens, UniProt P14618). The experiment in a line: PKM2 Ex-Vivo Assay. It is filed as cell-based. The settings on record: A549 cells treated with compound 1-4 hrs, pyruvate kinase activity in lysate; read-out: Ex-Vivo_AC50. The arrangement: endogenous in cells; host or cells: A549. As for the experimental part: Described herein is a method to measure the activity of PKM2 activators in living cells and tissue. One of ordinary skill in the art would recognize and understand that this method can be adapted to high throughput format, and can accommodate a variety of cell lines and growth conditions.
In the assay, cells are treated with a compound described herein (i.e., a PKM2 activator). This compound is capable of entering the cell and binding to PKM2, inducing an activated conformation. The excess unbound compound is washed away with PBS, and the cells are lysed by snap-freezing on dry ice, followed by addition of a detergent-containing lysis buffer. The lysate, in which activated PKM2 remains intact, is removed and added to a chemical cocktail including the chemicals necessary to measure pyruvate kinase activity, in an assay that is coupled to the LDHa enzyme. The amount of pyruvate kinase activity that is measured is normalized to the total protein content in the lysate, and related to the concentration of PKM2 activator that was added to the cell. This allows an AC50 (concentration at which PKM2 is activated 50%) value to be derived. The total fold-increase in activity over mock-treated cells can also be calculated, and the “maximum level of activation” can be used to distinguish between compounds that fully activate PKM2 and compounds that can only partially activate PKM2.
• Lysis buffer* • 20 mM Tris-HCl (pH 7.5) • 150 mM NaCl • 1 mM Na2EDTA • 1 mM EGTA • 1% Triton • 2.5 mM sodium pyrophosphate • 1 mM beta-glycerophosphate • 1 mM Na3VO4 • 1 μg/ml leupeptin • 1 mM PMSF** * This lysis buffer (without PMSF) is available from Cell Signaling Technology as a 10× stock (#9803) ** 1 mM PMSF is added fresh from a 100 mM stock solution made up in isopropanol. The stock solution can be stored at 4 degrees indefinitely. Pyruvate Kinase Assay Master Mix (Same for PKM2 Activator Assay):
On the first day (day 1) cells are normally cultured in RPMI-1640 (Lonza #[…].) (with 25 mM Hepes, L-glutamine)/10% FBS. The cells are subsequently trypsinized and plated in RPMI-1640 (Lonza, #12-918F) (no phenol red, supplemented with L-glutamine @300 mg/L (Sigma, #G8540))/10% FBS at the following densities in 96 well plates:
100 uL final volume of media per well.
On the second day (Day 2), the cells should be 70-90% confluent. The cells are then treated with a compound described herein dissolved in media at final assay concentrations in a 96-well assay block (500 uL) (Costar, #3956). The final DMSO concentration is 0.1% (0.5 μL into 500 uL). Compound dilutions in DMSO are prepared so that the final DMSO concentration is constant at all compound concentrations. The media for the assay is RPMI-1640 (no phenol red, with L-glutamine @300 mg/L).
The media is then aspirated carefully from the cells using a multi-channel aspirator. 100 μL of media w/compounds is added onto cells with a multichannel pipette. Each compound concentration is then assayed in triplicate (a duplicate assay is also sufficient).
The cells are treated for 1-4 hrs (this time is determined empirically compared to DMSO reference treatment). During the cell treatment, PBS (containing calcium and magnesium) and lysis buffer is cooled on ice.
The cells are lysed and the pyruvate kinase activity is assayed. The remaining media is aspirated and the cells are washed 2× with 100 uL ice-cold PBS. The PBS is removed, and the cell plate frozen on dry ice for 5 minutes. The cells are lysed in 50 μL cold lysis buffer. Cells are subsequently kept on ice for 5 minutes, and then agitated on a plate shaker for 5 minutes (repeat 3×). Remove 10 μL for protein quantitation (or use OD280 on entire plate).
In a fresh plate, 170 uL of pyruvate kinase assay master mix was added to each well (see end for recipe). 10 uL of cell lysate was then transferred into each well. The assay was initiated upon addition of 20 uL of ADP solution. […]
Target sequence in this assay (P14618 2-531 limits assumed): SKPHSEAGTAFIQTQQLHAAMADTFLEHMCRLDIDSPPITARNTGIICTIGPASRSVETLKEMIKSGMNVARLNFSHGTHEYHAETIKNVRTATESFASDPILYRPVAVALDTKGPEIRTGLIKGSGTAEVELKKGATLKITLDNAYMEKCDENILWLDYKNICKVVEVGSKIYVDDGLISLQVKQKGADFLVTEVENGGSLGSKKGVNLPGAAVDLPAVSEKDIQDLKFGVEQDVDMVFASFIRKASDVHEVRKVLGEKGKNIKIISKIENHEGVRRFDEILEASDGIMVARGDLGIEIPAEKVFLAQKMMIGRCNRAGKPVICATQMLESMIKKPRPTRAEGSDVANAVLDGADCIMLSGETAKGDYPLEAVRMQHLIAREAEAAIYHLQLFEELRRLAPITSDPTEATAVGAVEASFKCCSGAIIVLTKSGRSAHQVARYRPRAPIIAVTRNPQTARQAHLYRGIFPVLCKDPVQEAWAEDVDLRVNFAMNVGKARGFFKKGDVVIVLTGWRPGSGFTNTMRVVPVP

Test [2] addresses T1, PKM2. The experiment in a line: PKM2 Assay. The class given is biochemical. The settings on record: activation of PKM2 enzyme, LDH-coupled, absorbance at 340 nm; read-out: PKM2_AC50. The protocol:
• PKM2 stock enzyme solution was diluted in Reaction Buffer • 2 μL of compound was added into each well first, and then 180 μL of the Reaction Mix was added. • Reaction mixture with compound (without ADP) were incubated for 30 minutes at 4° C. • Plates were re-equilibrated to room temperature prior to adding 20 μL ADP to initiate the reaction. • Reaction progress was measured as changes in absorbance at 340 nm wavelength at room temperature (25° C.) • Reaction Mix: PKM2 (50 ng/well), ADP (0.7 mM), PEP (0.15 mM), NADH (180 μM), LDH (2 units) in Reaction Buffer • Reaction Buffer: 100 mM KCl, 50 mM Tris pH 7.5, 5 mM MgCl2, 1 mM DTT, 0.03% BSA.
Target sequence in this assay (P14618 whole entry): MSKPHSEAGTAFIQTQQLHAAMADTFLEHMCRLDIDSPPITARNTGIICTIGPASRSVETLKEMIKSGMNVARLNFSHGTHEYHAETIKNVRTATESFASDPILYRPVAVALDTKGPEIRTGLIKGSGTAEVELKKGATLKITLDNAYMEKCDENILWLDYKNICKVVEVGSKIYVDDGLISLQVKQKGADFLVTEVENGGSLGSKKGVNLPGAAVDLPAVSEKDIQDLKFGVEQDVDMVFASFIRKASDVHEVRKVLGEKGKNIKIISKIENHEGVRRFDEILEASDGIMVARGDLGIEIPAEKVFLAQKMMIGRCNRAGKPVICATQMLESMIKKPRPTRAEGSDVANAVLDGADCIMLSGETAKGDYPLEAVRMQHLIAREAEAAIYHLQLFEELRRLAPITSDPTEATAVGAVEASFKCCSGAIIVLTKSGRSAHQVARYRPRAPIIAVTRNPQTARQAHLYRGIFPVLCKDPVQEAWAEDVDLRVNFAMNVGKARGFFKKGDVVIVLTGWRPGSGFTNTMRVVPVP

Each structure is given as a SMILES string.

For the compound `Cc1cc(C)cc(NS(=O)(=O)c2cccn2-c2ncccn2)c1`, the AC50 at PKM2 [1] is at most 1000 nM.
For `Cc1cc(C)cc(NS(=O)(=O)c2cccn2-c2ccc(C(F)(F)F)cn2)c1`, the AC50 on PKM2 [2] was 100 to 500 nM; at PKM2 [1] it was at most 1000 nM.
For `CCc1cccc(NS(=O)(=O)c2cccn2-c2ccnc(Cl)n2)c1` the same measures were 100 to 500 nM and above 1000 nM.
For `O=S(=O)(Nc1ccc(Cl)cc1)c1cccn1-c1ncc(C(F)(F)F)cc1Cl`, the AC50 at PKM2 [1] was at most 1000 nM.
As for `O=S(=O)(Nc1cccc(Cl)c1)c1cccn1-c1ncc(C(F)(F)F)cc1Cl`, the values for the AC50 on PKM2 [2] and on PKM2 [1] were below 100 nM and at most 1000 nM, respectively.
As to `Cc1cc(C)cc(NS(=O)(=O)c2cccn2-c2ncc(C(F)(F)F)cc2Cl)c1`, the AC50 on PKM2 [1] was at most 1000 nM.
On to `Cc1cc(C)cc(NS(=O)(=O)c2cccn2-c2ccnc(Cl)n2)c1`, for which the values for the AC50 at PKM2 [2] and on PKM2 [1] were below 100 nM and above 1000 nM, respectively.
`Cc1ccc(NS(=O)(=O)c2cccn2-c2ncc(C(F)(F)F)cc2Cl)cc1`: the values for the AC50 at PKM2 [2] and on PKM2 [1] were below 100 nM and at most 1000 nM, respectively.
For `Cc1cc(NS(=O)(=O)c2cccn2-c2ncc(C(F)(F)F)cc2Cl)ccc1Cl` the same measures were below 100 nM and at most 1000 nM.
`Cc1ccc(NS(=O)(=O)c2cccn2-c2ncc(C(F)(F)F)cc2Cl)cc1C`: the results for the AC50 at PKM2 [2] and on PKM2 [1] were below 100 nM and at most 1000 nM, respectively.
On to `O=S(=O)(Nc1ccc2c(c1)OCO2)c1cccn1-c1ncc(C(F)(F)F)cc1Cl`, for which, on PKM2 [1], the AC50 is at most 1000 nM.
Consider `Cc1cc(C)cc(NS(=O)(=O)c2cccn2-c2nccc(Cl)n2)c1`, for which the AC50 was below 100 nM on PKM2 [2] and above 1000 nM on PKM2 [1].
Consider `O=S(=O)(Nc1ccccc1)c1cccn1-c1ncc(C(F)(F)F)cc1Cl`, for which the AC50 on PKM2 [2] was below 100 nM; on PKM2 [1], at most 1000 nM.
Consider `Cc1cc(NS(=O)(=O)c2cncn2-c2ncc(C(F)(F)F)cc2Cl)ccc1Cl`, for which the AC50 at PKM2 [2] is 100 to 500 nM; on PKM2 [1], at most 1000 nM.
For `O=S(=O)(Nc1ccc(F)c(Cl)c1)c1cncn1-c1ncc(C(F)(F)F)cc1Cl` the same measures were 100 to 500 nM and at most 1000 nM.
Consider `Cc1ccc(NS(=O)(=O)c2cncn2-c2ncc(C(F)(F)F)cc2Cl)cc1C`, for which the AC50 on PKM2 [2] was below 100 nM; at PKM2 [1], at most 1000 nM.
On to `Cc1cc(NS(=O)(=O)c2cncn2-c2ncc(C(F)(F)F)cc2Cl)ccc1F`, for which the AC50 at PKM2 [2] was below 100 nM; on PKM2 [1], at most 1000 nM.
`Cc1cccc(NS(=O)(=O)c2cncn2-c2ncc(C(F)(F)F)cc2Cl)c1`: at PKM2 [1], the AC50 was at most 1000 nM.
`Cc1cc(C)cc(NS(=O)(=O)c2cncn2-c2ncc(C(F)(F)F)cc2Cl)c1`: the AC50 at PKM2 [1] is at most 1000 nM.
Regarding `O=S(=O)(Nc1cccc(Cl)c1)c1cncn1-c1ncc(C(F)(F)F)cc1Cl`, the AC50 is 100 to 500 nM on PKM2 [2] and at most 1000 nM on PKM2 [1].
For `Cc1cc(C)cc(NS(=O)(=O)c2cnn(-c3ncc(C(F)(F)F)cc3Cl)c2)c1`, the AC50 is below 100 nM on PKM2 [2] and at most 1000 nM on PKM2 [1].
Taken in the same sequence, the figures for `O=S(=O)(Nc1cc(F)cc(F)c1)c1cccn1-c1ncc(C(F)(F)F)cc1Cl` were below 100 nM and at most 1000 nM.
For `Cc1cc(NS(=O)(=O)c2cccn2-c2ncc(C(F)(F)F)cc2Cl)ccc1F`, the AC50 at PKM2 [1] is at most 1000 nM.
As for `O=S(=O)(Nc1ccc2c(c1)OCO2)c1cccn1-c1ncccc1Cl`, the results for the AC50 on PKM2 [2] and on PKM2 [1] were below 100 nM and at most 1000 nM, respectively.
Take `O=S(=O)(Nc1ccc(F)c(Cl)c1)c1cccn1-c1ccnc(Cl)n1`: the AC50 at PKM2 [2] was below 100 nM; at PKM2 [1], above 1000 nM.
Take `O=S(=O)(Nc1ccc(Cl)cc1)c1cncn1-c1cnccn1`: the AC50 at PKM2 [2] was 1000 to 10000 nM; on PKM2 [1] it was at most 1000 nM.
In the case of `O=S(=O)(Nc1ccc(Cl)cc1)c1cccn1-c1ncccc1Cl` [drawing 87], the AC50 on PKM2 [1] is at most 1000 nM.
For the compound `Cc1cc(NS(=O)(=O)c2cccn2-c2ncccc2Cl)ccc1F` [drawing 101], the AC50 on PKM2 [2] was below 100 nM.
Regarding `O=S(=O)(Nc1ccc(F)c(Cl)c1)c1cncn1-c1ncccn1` [drawing 117], the AC50 on PKM2 [2] was in the range of 100 to 500 nM.
Still for that read-out and setting: the same measure for `COc1cc(NS(=O)(=O)c2cncn2-c2ncc(C(F)(F)F)cc2Cl)cc(C(F)(F)F)c1` [drawing 122]: 1000 to 10000 nM.
With `O=S(=O)(Nc1ccc2ccccc2c1)c1cncn1-c1ncc(C(F)(F)F)cc1Cl` [drawing 128], the values for the AC50 at PKM2 [2] and at PKM2 [1] were below 100 nM and at most 1000 nM, respectively.
As for `Cc1cc(NS(=O)(=O)c2cncn2-c2ncccn2)ccc1F` [drawing 132], the AC50 on PKM2 [2] was below 100 nM.
Still for that read-out and setting: the value for `COc1cc(NS(=O)(=O)c2cncn2-c2ncc(C(F)(F)F)cc2Cl)cc(C(F)(F)F)c1` [drawing 144] was 500 to 1000 nM; that for `COc1cc(NS(=O)(=O)c2cncn2-c2ncc(C(F)(F)F)cc2Cl)cc(C(F)(F)F)c1` [drawing 149] was 1000 to 10000 nM.
With `O=S(=O)(Nc1ccc2ccccc2c1)c1cncn1-c1ncc(C(F)(F)F)cc1Cl` [drawing 151], the results for the AC50 at PKM2 [2] and on PKM2 [1] were 100 to 500 nM and at most 1000 nM, respectively.
`O=S(=O)(Nc1ccc(Cl)cc1)c1cccn1-c1ncccc1Cl` [drawing 154]: the AC50 at PKM2 [2] was 100 to 500 nM.
On to `Cc1cc(NS(=O)(=O)c2cncn2-c2ncccn2)ccc1F` [drawing 158], for which the AC50 on PKM2 [2] is 100 to 500 nM; at PKM2 [1] it was at most 1000 nM.
As to `O=S(=O)(Nc1ccc(F)c(Cl)c1)c1cncn1-c1ncccn1` [drawing 160], the AC50 on PKM2 [1] was at most 1000 nM.
As to `Cc1cc(NS(=O)(=O)c2cccn2-c2ncccc2Cl)ccc1F` [drawing 161], the AC50 was 100 to 500 nM on PKM2 [2] and at most 1000 nM at PKM2 [1].
For the compound `O=S(=O)(Nc1cc(F)cc(F)c1)c1cccn1-c1ncccc1Cl` [drawing 162], the AC50 at PKM2 [2] is below 100 nM.
